From patent publication US20230167118A1, “DEGRADATION OF BRUTON'S TYROSINE KINASE (BTK) BY CONJUGATION OF BTK INIDBITORS WITH E3 LIGASE LIGAND AND METHODS OF USE” (BEIGENE, LTD., priority 2020, published 2023)

Key:
[1] = target: T1, BTK (Homo sapiens, UniProt Q06187); assay: Cell Degradation: BTK degradation in TMD-8 cells, HTRF assay; type: cell-based; conditions: 6 h treatment, IC50 (DC50) of BTK degradation
T1 construct: High control=Cell group with added DMSO and without compound, indicating microplate readings without BTK degradation; endogenous in cells; host or cells: TMD-8 cells
Description: TMD-8 cells are treated with compounds in 0.2% DMSO, dilution is done according to the following protocol: (1) make 500× stock solution in DMSO from 1 mM by 6-fold dilution, total 8 doses were included; (2) make 2× solution in cell culture medium by transferring 0.5 μl 500× stock solution into 125 μl medium; (3) 15 μl of 2× solution is added to cells and incubate for 6 h.
After 6 h treatment, add […] 4×lysis buffer to each well; seal the plate and incubate 30 min at room temperature on a plate shaker; Once the cells are lysed, 16 μL of cell lysate are transferred to a PE 384-well HTRF detection plate; 4 μL of pre-mixed HTRF antibodies are added to each well; Cover the plate with a plate sealer, spin 1000 rpm for 1 min, Incubate overnight at room temperature; Read on BMG PheraStar with HTRF protocol (337 nm-665 nm-620 nm).
The inhibition (degradation) percentage of the compound was calculated by the following equation: Inhibition percentage of Compound=100-100× (Signal-low control)/(High control-low control), wherein signal=each test compound group
Dmax is the maximum percentage of inhibition (degradation).
The IC50 (DC50) value of a compound can be obtained by fitting the following equation
Y=Bottom+(TOP-Bottom)/(1+((IC50/X)^hillslope))
(§1) Wherein, X and Y are known values, and IC50, Hillslope, Top and Bottom are the parameters obtained by fitting with software. Y is the inhibition percentage (calculated from the equation), X is the concentration of the compound; IC50 is the concentration of the compound when the 50% inhibition is reached. The smaller the IC50 value is, the stronger the inhibitory ability of the compound is. Vice versa, the higher the IC50 value is, the weaker the ability the inhibitory ability of the compound is; Hillslope represents the slope of the fitted curve, generally around 1 *; Bottom represents the minimum value of the curve obtained by data fitting, which is generally 0%±20%; Top represents the maximum value of the curve obtained by data fitting, which is generally 100%±20%. The experimental data were fitted by calculating and analyzing with Dotmatics data analysis software.

[2] = system: HEK-293 cells; assay: HEK-293 Cytotoxicity Assay (CellTiter-Glo); type: cell-based; conditions: Homo sapiens, HEK293, 72 h incubation, CellTiter-Glo luminescence
Description: HEK-293 Cytotoxicity Assay
HEK-293 cells are treated with compounds diluted in 0.2% DMSO, dilution is done according to the following protocol: (1) make 500× stock solution in DMSO from 5 mM by 4-fold dilution, total 8 doses were included; (2) make 2× solution in cell culture medium by transferring 0.5 ul 500× stock solution into 125 ul medium; (3) 50 ul of 2× solution is added to cells and incubate for 72 h.
Add 25 μl of the CellTiter-Glo®Reagent [I (Promega)—Cat No. G7572] to each well in the 96-well plate. Mix contents for 2 minutes on an orbital shaker to induce cell lysis. Allow the plate to incubate at room temperature for 10 minutes to stabilize luminescent signal. Record luminescence on BMG PheraStar with luminescence protocol.
as §1, with “The IC50 value of a compound can be obtained by fitting the following equation. Y=Bottom+(TOP−Bottom)/(1+((IC50/X)^hillslope)) Wherein,” for “Wherein,”, “1*;” for “1 *;”

T1 sequence (Q06187 whole entry): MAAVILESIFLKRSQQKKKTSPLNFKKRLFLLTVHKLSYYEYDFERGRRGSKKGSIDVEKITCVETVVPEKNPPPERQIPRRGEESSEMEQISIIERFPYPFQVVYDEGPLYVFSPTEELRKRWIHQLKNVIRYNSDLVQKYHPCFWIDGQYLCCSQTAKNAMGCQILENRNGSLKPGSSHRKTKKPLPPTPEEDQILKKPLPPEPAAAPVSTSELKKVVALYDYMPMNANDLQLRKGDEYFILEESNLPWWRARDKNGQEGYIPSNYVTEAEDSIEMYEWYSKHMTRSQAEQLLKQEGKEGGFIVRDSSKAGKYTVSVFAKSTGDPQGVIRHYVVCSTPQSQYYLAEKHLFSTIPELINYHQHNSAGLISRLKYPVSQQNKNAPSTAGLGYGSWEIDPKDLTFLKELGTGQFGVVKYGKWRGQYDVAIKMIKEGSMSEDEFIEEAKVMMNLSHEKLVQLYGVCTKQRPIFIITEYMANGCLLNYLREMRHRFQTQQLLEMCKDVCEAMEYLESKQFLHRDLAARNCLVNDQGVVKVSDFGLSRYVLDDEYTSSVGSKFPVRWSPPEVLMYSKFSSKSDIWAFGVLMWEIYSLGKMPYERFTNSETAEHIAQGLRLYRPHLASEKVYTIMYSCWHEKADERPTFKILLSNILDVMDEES

In the case of `Cc1c(-c2ncnc3[nH]c(-c4ccc(N5CCN(CC6CCN(c7ccc(N8CCC(=O)NC8=O)cc7)CC6)CC5)nc4)cc23)cccc1N1CCn2c(cc3c2CC(C)(C)C3)C1=O` [Example 10, 1-(4-(4-((4-(5-(4-(3-(7,7-dimethyl-1-oxo-1,3,4,6,7,8-hexahydro-2H-cyclopenta[4,5]pyrrolo[1,2-a]pyrazin-2-yl)-2-methylphenyl)-7H-pyrrolo[2,3-d]pyrimidin-6-yl)pyridin-2-yl)piperazin-1-yl)methyl)piperidin-1-yl)phenyl)dihydropyrimidine-2,4(1H,3H)-dione], the DC50 [1] is reported as 3.4 nM and the IC50 [2] is reported as > 10000 nM.
For `Cc1cc(-c2ncnc3[nH]c(-c4ccc(N5CCN(CC6CCN(c7ccc(N8CCC(=O)NC8=O)cc7)CC6)CC5)cc4)cc23)ccc1[C@@H](C)NC(=O)c1noc(C2(C)CC2)n1` [Example 90, (R)-N-(1-(4-(6-(4-(4-((1-(4-(2,4-dioxotetrahydropyrimidin-1(2H)-yl)phenyl)piperidin-4-yl)methyl)piperazin-1-yl)phenyl)-7H-pyrrolo[2,3-d]pyrimidin-4-yl)-2-methylphenyl)ethyl)-5-(1-methylcyclopropyl)-1,2,4-oxadiazole-3-carboxamide], the DC50 [1] was 1.5 nM and the IC50 [2] was > 10000 nM.
Work on `Cc1cc(-c2ncnc3[nH]c(-c4ccc(C5CCN(CCC6CCN(c7ccc(N8CCC(=O)NC8=O)c(C)n7)CC6)CC5)cc4)cc23)ccc1CNC(=O)c1nc(C(C)(C)C)no1` [Example 13, 3-(tert-butyl)-N-(4-(6-(4-(1-(2-(1-(5-(2,4-dioxotetrahydropyrimidin-1(2H)-yl)-6-methylpyridin-2-yl)piperidin-4-yl)ethyl)piperidin-4-yl)phenyl)-7H-pyrrolo[2,3-d]pyrimidin-4-yl)-2-methylbenzyl)-1,2,4-oxadiazole-5-carboxamide] yielded a DC50 [1] of 2.3 nM and an IC50 [2] of 1860 nM.
In the case of `Cc1c(-c2ncnc3[nH]c(-c4ccc(C5CCN(CC6CCN(c7ccc(N8CCC(=O)NC8=O)cc7)CC6)CC5)cc4)cc23)cccc1N1CCn2c(cc3c2CC(C)(C)C3)C1=O` [Example 9, 1-(4-(4-((4-(4-(4-(3-(7,7-dimethyl-1-oxo-1,3,4,6,7,8-hexahydro-2H-cyclopenta[4,5]pyrrolo[1,2-a]pyrazin-2-yl)-2-methylphenyl)-7H-pyrrolo[2,3-d]pyrimidin-6-yl)phenyl)piperidin-1-yl)methyl)piperidin-1-yl)phenyl)dihydropyrimidine-2,4(1H,3H)-dione], the DC50 [1] is reported as 7.2 nM and the IC50 [2] is reported as 746 nM.
With `Cc1cc(-c2ncnc3[nH]c(-c4ccc(C5(O)CN(CC6CCN(c7ccc(N8CCC(=O)NC8=O)cc7)CC6)C5)cn4)cc23)ccc1[C@@H](C)NC(=O)c1nc(C(C)(C)C)no1` [Example 172, (R)-3-(tert-butyl)-N-(1-(4-(6-(5-(1-((1-(4-(2,4-dioxotetrahydropyrimidin-1(2H)-yl)phenyl)piperidin-4-yl)methyl)-3-hydroxyazetidin-3-yl)pyridin-2-yl)-7H-pyrrolo[2,3-d]pyrimidin-4-yl)-2-methylphenyl)ethyl)-1,2,4-oxadiazole-5-carboxamide] the DC50 [1] was 0.24 nM and the IC50 [2] was > 10000 nM.
`Cc1cc(N2CCC(CN3CCN(c4ccc(-c5cc6c(-c7ccc([C@@H](C)NC(=O)c8noc(C(C)(C)C)n8)c(C)c7F)ncnc6[nH]5)cn4)CC3)CC2)ccc1N1CCC(=O)NC1=O` [Example 141, (R)-5-(tert-butyl)-N-(1-(4-(6-(6-(4-((1-(4-(2,4-dioxotetrahydropyrimidin-1(2H)-yl)-3-methylphenyl)piperidin-4-yl)methyl)piperazin-1-yl)pyridin-3-yl)-7H-pyrrolo[2,3-d]pyrimidin-4-yl)-3-fluoro-2-methylphenyl)ethyl)-1,2,4-oxadiazole-3-carboxamide] was tested, and the DC50 [1] was 1.23 nM and the IC50 [2] was > 10000 nM.
In the case of `Cc1cc(-c2ncnc3[nH]c(-c4ccc(N5CCN(CC6CCN(c7ccc(N8CCC(=O)NC8=O)c(C)c7)CC6)CC5)c(C)c4)nc23)ccc1[C@@H](C)NC(=O)c1nc(C(C)(C)C)no1` [Example 112, (R)-3-(tert-butyl)-N-(1-(4-(8-(4-(4-((1-(4-(2,4-dioxotetrahydropyrimidin-1(2H)-yl)-3-methylphenyl)piperidin-4-yl)methyl)piperazin-1-yl)-3-methylphenyl)-9H-purin-6-yl)-2-methylphenyl)ethyl)-1,2,4-oxadiazole-5-carboxamide], the DC50 [1] is reported as 0.76 nM and the IC50 [2] is reported as > 10000 nM.
`Cc1cc(-c2ncnc3[nH]c(-c4ccc(N5CCN(CC6CCN(c7ccc(N8CCC(=O)NC8=O)c(C)c7)CC6)CC5)cn4)cc23)ccc1[C@@H](C)NC(=O)c1noc(C2(C)CC2)n1` [Example 125, (R)-N-(1-(4-(6-(5-(4-((1-(4-(2,4-dioxotetrahydropyrimidin-1(2H)-yl)-3-methylphenyl)piperidin-4-yl)methyl)piperazin-1-yl)pyridin-2-yl)-7H-pyrrolo[2,3-d]pyrimidin-4-yl)-2-methylphenyl)ethyl)-5-(1-methylcyclopropyl)-1,2,4-oxadiazole-3-carboxamide] was tested, and the DC50 [1] was 0.74 nM and the IC50 [2] was > 10000 nM.
With `Cc1cc(-c2ncnc3[nH]c(-c4ccc(C5CC6CCC(C5)N6CC5CCN(c6ccc(N7CCC(=O)NC7=O)cc6)CC5)cc4)cc23)ccc1[C@@H](C)NC(=O)c1nc(C(C)(C)C)no1` (stereo partly drawn) [Example 183, 3-(tert-butyl)-N-((1R)-1-(4-(6-(4-(8-((1-(4-(2,4-dioxotetrahydropyrimidin-1(2H)-yl)phenyl)piperidin-4-yl)methyl)-8-azabicyclo[3.2.1]octan-3-yl)phenyl)-7H-pyrrolo[2,3-d]pyrimidin-4-yl)-2-methylphenyl)ethyl)-1,2,4-oxadiazole-5-carboxamide] the DC50 [1] was 1.4 nM and the IC50 [2] was 1040 nM.
`Cc1cc(-c2ncnc3[nH]c(-c4nn(C)c(C5=CCN(CC6CCN(c7ccc(N8CCC(=O)NC8=O)cc7)CC6)CC5)c4C)cc23)ccc1[C@@H](C)NC(=O)c1nc(C(C)(C)C)no1` [Example 174, (R)-3-(tert-butyl)-N-(1-(4-(6-(5-(1-((1-(4-(2,4-dioxotetrahydropyrimidin-1(2H)-yl)phenyl)piperidin-4-yl)methyl)-1,2,3,6-tetrahydropyridin-4-yl)-1,4-dimethyl-1H-pyrazol-3-yl)-7H-pyrrolo[2,3-d]pyrimidin-4-yl)-2-methylphenyl)ethyl)-1,2,4-oxadiazole-5-carboxamide] was tested, and the DC50 [1] was 1.51 nM and the IC50 [2] was > 10000 nM.
For `Cc1cc(-c2ncnc3[nH]c(-c4ccc(N5CCN(CC6CCN(c7ccc(N8CCC(=O)NC8=O)cc7)CC6)CC5)cn4)cc23)ccc1[C@@H](C)NC(=O)c1noc(C2(C)CC2)n1` [Example 124, (R)-N-(1-(4-(6-(5-(4-((1-(4-(2,4-dioxotetrahydropyrimidin-1(2H)-yl)phenyl)piperidin-4-yl)methyl)piperazin-1-yl)pyridin-2-yl)-7H-pyrrolo[2,3-d]pyrimidin-4-yl)-2-methylphenyl)ethyl)-5-(1-methylcyclopropyl)-1,2,4-oxadiazole-3-carboxamide], the DC50 [1] was 1.01 nM and the IC50 [2] was > 10000 nM.
`Cc1nn(C2CCN(CC3CCN(c4ccc(N5CCC(=O)NC5=O)cc4)CC3)CC2)c(C)c1-c1cc2c(-c3ccc([C@@H](C)NC(=O)c4nc(C(C)(C)C)no4)c(CO)c3)ncnc2[nH]1` [Example 138, (R)-3-(tert-butyl)-N-(1-(4-(6-(1-(1-((1-(4-(2,4-dioxotetrahydropyrimidin-1(2H)-yl)phenyl)piperidin-4-yl)methyl)piperidin-4-yl)-3,5-dimethyl-1H-pyrazol-4-yl)-7H-pyrrolo[2,3-d]pyrimidin-4-yl)-2-(hydroxymethyl)phenyl)ethyl)-1,2,4-oxadiazole-5-carboxamide] gave a DC50 [1] of 0.29 nM and an IC50 [2] of 1860 nM.
